Measured values as given in US20110191876A1, “GLYPHOSATE TOLERANT PERENNIAL RYEGRASS NAMED 'JACKLIN 501'” (J.R. SIMPLOT COMPANY, priority 2009, published 2011).

System: perennial ryegrass 96-3047
Assay: glyphosate applied at termination of the Maryland turf trial, plot survival
Type: in vivo, Lolium perenne L.
Conditions: perennial ryegrass 96-3047 plot, Maryland trial 1999, glyphosate at 2-quarts per acre; only plot not killed
Source text: In 1999, during the termination of the Maryland trial, 96-3047 was the only plot in the trial that was not killed when glyphosate at the rate of 2-quarts per acre was applied. Survival in the plot was estimated at 30% and plugs were pulled, coded as 99-0089, and 200 plants of 99-0089 were planted in an isolation block in the 1999 Post Falls, Id. nursery.

`O=C(O)CNCP(=O)(O)O` [glyphosate, N-(phosphonomethyl) glycine] was tested, and the “Survival in the plot” value was ~30%.
